Laboratory results: the CheMixHub viscosity set
± gives the uncertainty stated by the source.

Experiment: xn = mol fraction of the nth substance listed

COC(C)=O + CCCCCCCCCCCCCCCC
298.15 K, 101.3 kPa
Settings	viscosity [mPa·s]
x1 = 0.0393	2.924 ± 0.027
x1 = 0.118	2.619 ± 0.024
x1 = 0.3657	1.819 ± 0.016
x1 = 0.4814	1.491 ± 0.013
x1 = 0.5357	1.35 ± 0.012
x1 = 0.652	1.086 ± 0.0096
x1 = 0.7625	0.8431 ± 0.0076
x1 = 0.8682	0.6349 ± 0.0059
x1 = 0.9609	0.4379 ± 0.0043

CC(=O)C(=O)O + CC(C)[C@@H]1CC[C@@H](C)C[C@H]1O
100 kPa, x2 = 0.67
Settings	viscosity [mPa·s]
293.15 K	44.64 ± 0.96
298.15 K	29.95 ± 0.65
303.15 K	21.24 ± 0.46
308.15 K	15.67 ± 0.34
313.15 K	11.88 ± 0.26
318.15 K	9.36 ± 0.2
323.15 K	7.511 ± 0.16

CCC(C)=O + CCCCCCO
viscosity [mPa·s], 100 kPa
Settings	x1 = 0.0791	x1 = 0.1639	x1 = 0.2389	x1 = 0.3481	x1 = 0.4401	x1 = 0.5609	x1 = 0.6516	x1 = 0.7391	x1 = 0.8511	x1 = 0.9382
293.15 K	3.8 ± 0.38	2.9 ± 0.3	2.29 ± 0.23	1.69 ± 0.17	1.3 ± 0.13	0.93 ± 0.09	0.75 ± 0.08	0.57 ± 0.06	0.41 ± 0.04	0.4 ± 0.04
303.15 K	2.95 ± 0.3	2.28 ± 0.23	1.87 ± 0.19	1.42 ± 0.14	1.09 ± 0.11	0.81 ± 0.08	0.7 ± 0.07	0.58 ± 0.06	0.47 ± 0.05	0.41 ± 0.04
313.15 K	2.28 ± 0.23	1.8 ± 0.18	1.49 ± 0.15	1.15 ± 0.12	0.92 ± 0.09	0.72 ± 0.07	0.6 ± 0.06	0.51 ± 0.05	0.42 ± 0.04	0.37 ± 0.04
323.15 K	1.8 ± 0.18	1.46 ± 0.15	1.21 ± 0.12	0.96 ± 0.1	0.79 ± 0.08	0.62 ± 0.06	0.52 ± 0.05	0.45 ± 0.05	0.37 ± 0.04	0.34 ± 0.03

COCCOC + CCCCCCCCCO
101 kPa
Settings	viscosity [mPa·s]
293.15 K, x1 = 0.05508	9.45 ± 0.12
293.15 K, x1 = 0.1012	7.813 ± 0.1
293.15 K, x1 = 0.2007	5.336 ± 0.068
293.15 K, x1 = 0.2922	3.86 ± 0.047
293.15 K, x1 = 0.393	2.747 ± 0.033
293.15 K, x1 = 0.494	1.994 ± 0.023
293.15 K, x1 = 0.5924	1.477 ± 0.016
293.15 K, x1 = 0.7015	1.076 ± 0.012
293.15 K, x1 = 0.7986	0.812 ± 0.009
293.15 K, x1 = 0.907	0.588 ± 0.006
293.15 K, x1 = 0.9472	0.524 ± 0.006
303.15 K, x1 = 0.04903	6.486 ± 0.087
303.15 K, x1 = 0.1035	5.323 ± 0.07
303.15 K, x1 = 0.2044	3.716 ± 0.047
303.15 K, x1 = 0.2954	2.745 ± 0.034
303.15 K, x1 = 0.3981	1.979 ± 0.024
303.15 K, x1 = 0.4938	1.485 ± 0.017
303.15 K, x1 = 0.5991	1.098 ± 0.012
303.15 K, x1 = 0.7049	0.816 ± 0.009
303.15 K, x1 = 0.7958	0.643 ± 0.007
303.15 K, x1 = 0.902	0.492 ± 0.005
303.15 K, x1 = 0.9436	0.446 ± 0.005
313.15 K, x1 = 0.05382	4.747 ± 0.064
313.15 K, x1 = 0.1054	4 ± 0.053
313.15 K, x1 = 0.2052	2.936 ± 0.037
313.15 K, x1 = 0.2949	2.233 ± 0.028
313.15 K, x1 = 0.3955	1.66 ± 0.02
313.15 K, x1 = 0.4901	1.279 ± 0.015
313.15 K, x1 = 0.5829	1.007 ± 0.011
313.15 K, x1 = 0.7	0.739 ± 0.008
313.15 K, x1 = 0.8016	0.58 ± 0.006
313.15 K, x1 = 0.9013	0.457 ± 0.005
313.15 K, x1 = 0.9469	0.41 ± 0.004

OCCNCCO + CN(C)C=O
viscosity [mPa·s], 101 kPa
Settings	298.15 K	303.15 K	308.15 K	313.15 K	318.15 K	323.15 K
x2 = 0.7704	2.703 ± 0.19	2.509 ± 0.18	2.34 ± 0.16	2.172 ± 0.15	2.034 ± 0.14	1.879 ± 0.13
x2 = 0.8119	2.172 ± 0.15	2.009 ± 0.14	1.842 ± 0.13	1.682 ± 0.12	1.542 ± 0.11	1.427 ± 0.1
x2 = 0.8519	1.853 ± 0.13	1.686 ± 0.12	1.559 ± 0.11	1.429 ± 0.1	1.295 ± 0.091	1.204 ± 0.085
x2 = 0.8907	1.53 ± 0.11	1.423 ± 0.1	1.321 ± 0.093	1.206 ± 0.085	1.115 ± 0.079	1.03 ± 0.072
x2 = 0.9283	1.357 ± 0.096	1.238 ± 0.087	1.14 ± 0.08	1.043 ± 0.073	0.9653 ± 0.068	0.8984 ± 0.063
x2 = 0.9647	1.169 ± 0.082	1.097 ± 0.077	1.02 ± 0.072	0.9487 ± 0.067	0.8828 ± 0.062	0.8316 ± 0.059

C1CCCCC1 + CCCO
Settings	viscosity [mPa·s]
298.15 K, 100 kPa, x2 = 0.0547	0.8988 ± 0.11
298.15 K, 100 kPa, x2 = 0.1077	0.9091 ± 0.11
298.15 K, 100 kPa, x2 = 0.1968	0.9202 ± 0.11
298.15 K, 100 kPa, x2 = 0.3164	0.9358 ± 0.11
298.15 K, 100 kPa, x2 = 0.4278	1.013 ± 0.12
298.15 K, 100 kPa, x2 = 0.6293	1.243 ± 0.15
298.15 K, 100 kPa, x2 = 0.8064	1.502 ± 0.18
298.15 K, 100 kPa, x2 = 0.8873	1.626 ± 0.2
298.15 K, 101 kPa, x2 = 0.0166	0.873 ± 0.008
298.15 K, 101 kPa, x2 = 0.0647	0.865 ± 0.008
298.15 K, 101 kPa, x2 = 0.1219	0.867 ± 0.008
298.15 K, 101 kPa, x2 = 0.2231	0.889 ± 0.009
298.15 K, 101 kPa, x2 = 0.3207	0.946 ± 0.009
298.15 K, 101 kPa, x2 = 0.3805	0.994 ± 0.01
298.15 K, 101 kPa, x2 = 0.7039	1.371 ± 0.013
298.15 K, 101 kPa, x2 = 0.8023	1.529 ± 0.014
303.15 K, 101 kPa, x2 = 0.6491	1.1 ± 0.11
303.15 K, 101.33 kPa, x2 = 0.109	0.8411 ± 0.011
303.15 K, 101.33 kPa, x2 = 0.208	0.8728 ± 0.011
303.15 K, 101.33 kPa, x2 = 0.3385	0.9327 ± 0.012
303.15 K, 101.33 kPa, x2 = 0.4215	0.9852 ± 0.012
303.15 K, 101.33 kPa, x2 = 0.6115	1.141 ± 0.014
303.15 K, 101.33 kPa, x2 = 0.708	1.237 ± 0.015
303.15 K, 101.33 kPa, x2 = 0.8094	1.37 ± 0.017
308.15 K, 100 kPa, x2 = 0.0547	0.718 ± 0.086
308.15 K, 100 kPa, x2 = 0.1077	0.7248 ± 0.087
308.15 K, 100 kPa, x2 = 0.1968	0.7355 ± 0.088
308.15 K, 100 kPa, x2 = 0.3164	0.7941 ± 0.096
308.15 K, 100 kPa, x2 = 0.4278	0.8335 ± 0.1
308.15 K, 100 kPa, x2 = 0.5319	0.8971 ± 0.11
308.15 K, 100 kPa, x2 = 0.6293	0.9922 ± 0.12
308.15 K, 100 kPa, x2 = 0.7206	1.095 ± 0.13
308.15 K, 100 kPa, x2 = 0.8064	1.203 ± 0.14
308.15 K, 100 kPa, x2 = 0.8873	1.317 ± 0.16
308.15 K, 100 kPa, x2 = 0.9635	1.491 ± 0.18
308.15 K, 101 kPa, x2 = 0.0166	0.736 ± 0.007
308.15 K, 101 kPa, x2 = 0.0647	0.73 ± 0.007
308.15 K, 101 kPa, x2 = 0.1219	0.732 ± 0.007
308.15 K, 101 kPa, x2 = 0.2231	0.746 ± 0.007
308.15 K, 101 kPa, x2 = 0.3207	0.782 ± 0.008
308.15 K, 101 kPa, x2 = 0.3805	0.818 ± 0.008
308.15 K, 101 kPa, x2 = 0.4203	0.845 ± 0.008
308.15 K, 101 kPa, x2 = 0.6491	1.022 ± 0.11
308.15 K, 101 kPa, x2 = 0.7039	1.099 ± 0.011
308.15 K, 101 kPa, x2 = 0.8023	1.218 ± 0.012
313.15 K, 101 kPa, x2 = 0.6491	0.9392 ± 0.097
318.15 K, 101 kPa, x2 = 0.0166	0.634 ± 0.006
318.15 K, 101 kPa, x2 = 0.0647	0.626 ± 0.006
318.15 K, 101 kPa, x2 = 0.1219	0.624 ± 0.006
318.15 K, 101 kPa, x2 = 0.2231	0.634 ± 0.006
318.15 K, 101 kPa, x2 = 0.3207	0.66 ± 0.007
318.15 K, 101 kPa, x2 = 0.3805	0.683 ± 0.007
318.15 K, 101 kPa, x2 = 0.4203	0.706 ± 0.007
318.15 K, 101 kPa, x2 = 0.7039	0.896 ± 0.009
318.15 K, 101 kPa, x2 = 0.8023	0.992 ± 0.01

COC(C)=O + C1CCCCC1
viscosity [mPa·s], 101 kPa
Settings	298.15 K	308.15 K
x1 = 0.055	0.839 ± 0.084	0.699 ± 0.07
x1 = 0.1546	0.759 ± 0.076	0.614 ± 0.062
x1 = 0.2543	0.689 ± 0.069	0.547 ± 0.055
x1 = 0.3548	0.627 ± 0.063	0.493 ± 0.05
x1 = 0.4537	0.572 ± 0.057	0.45 ± 0.045
x1 = 0.4985	0.551 ± 0.055	0.435 ± 0.044
x1 = 0.5556	0.525 ± 0.053	0.417 ± 0.042
x1 = 0.6544	0.483 ± 0.049	0.392 ± 0.039
x1 = 0.7479	0.448 ± 0.045	0.374 ± 0.038
x1 = 0.8548	0.413 ± 0.041	0.36 ± 0.036
x1 = 0.9548	–	0.352 ± 0.035

CCC(C)=O + CCCCn1cc[n+](C)c1.F[B-](F)(F)F
298.15 K, 101.33 kPa
Settings	viscosity [mPa·s]
x2 = 0.7996	42.25 ± 2.9
x2 = 0.8995	67.85 ± 6

COC(C)=O + Cc1ccccc1C
viscosity [mPa·s], 101 kPa
Settings	298.15 K	308.15 K
x1 = 0.0434	0.731 ± 0.005	0.636 ± 0.005
x1 = 0.1489	0.668 ± 0.005	0.587 ± 0.005
x1 = 0.2499	0.616 ± 0.005	0.546 ± 0.005
x1 = 0.3517	0.57 ± 0.005	0.508 ± 0.004
x1 = 0.444	0.533 ± 0.005	0.478 ± 0.004
x1 = 0.4974	0.513 ± 0.004	0.462 ± 0.004
x1 = 0.5506	0.495 ± 0.004	0.447 ± 0.004
x1 = 0.6497	0.465 ± 0.004	0.422 ± 0.004
x1 = 0.7494	0.438 ± 0.004	0.399 ± 0.004
x1 = 0.851	0.414 ± 0.004	0.378 ± 0.004
x1 = 0.9458	0.394 ± 0.004	0.36 ± 0.004
